From publication PMC9979339 (ACS Omega, 2023)
“Also recorded” adds a separate entry of the source.

How the values were obtained:
[1] = DPPH free radical scavenging assay; type: biochemical; settings: for % DPPH scavenging mean ± SEM: n = 3; for IC50: read-out: IC50 DPPH scavenging
ABTS scavenging assay = type: biochemical; settings: for % ABTS scavenging mean ± SEM: n = 3; for IC50: read-out: IC50 ABTS scavenging
[2] = tested on: scopolamine-induced memory impairment in mice; assay: Y-maze spontaneous alternation, scopolamine-induced amnesia; type: in vivo
[3] = target: equine butyrylcholinesterase (Equus caballus, UniProt P81908); assay: BuChE inhibition, Ellman's colorimetric method; type: biochemical; settings: for inhibition at 31.25 µM / inhibition at 62.5 µM / inhibition at 125 µM / inhibition at 250 µM / inhibition at 500 µM / inhibition at 1000 µM: read-out: % BuChE inhibition mean ± SEM; for IC50: IC50 BuChE inhibition, in vitro
equine butyrylcholinesterase, sequence (P81908 whole entry): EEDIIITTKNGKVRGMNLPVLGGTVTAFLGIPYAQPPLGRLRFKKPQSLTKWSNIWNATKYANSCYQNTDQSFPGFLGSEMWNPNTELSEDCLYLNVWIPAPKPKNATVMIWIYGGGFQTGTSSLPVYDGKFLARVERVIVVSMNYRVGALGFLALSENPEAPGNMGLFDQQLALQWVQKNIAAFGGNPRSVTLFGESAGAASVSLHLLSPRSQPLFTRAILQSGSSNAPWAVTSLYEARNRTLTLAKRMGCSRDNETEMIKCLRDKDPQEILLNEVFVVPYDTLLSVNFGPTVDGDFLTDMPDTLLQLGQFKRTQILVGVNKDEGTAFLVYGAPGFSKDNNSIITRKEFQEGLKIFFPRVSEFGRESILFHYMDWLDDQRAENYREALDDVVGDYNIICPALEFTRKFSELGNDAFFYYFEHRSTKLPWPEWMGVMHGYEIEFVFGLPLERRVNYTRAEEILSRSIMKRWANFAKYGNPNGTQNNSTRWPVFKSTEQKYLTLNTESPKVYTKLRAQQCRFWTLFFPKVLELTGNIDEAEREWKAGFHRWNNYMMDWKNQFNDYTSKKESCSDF

[4] = tested on: scopolamine-induced memory impairment in mice; assay: Novel object recognition test; type: in vivo
[5] = target: electric eel acetylcholinesterase (type-VI-S) (Electrophorus electricus, UniProt O42275); assay: AChE inhibition, Ellman's colorimetric method; type: biochemical; settings: for IC50: IC50 AChE inhibition, in vitro; for inhibition at 31.25 µM: read-out: % AChE inhibition mean ± SEM, 31.25 μM, n = 3; for inhibition at 62.5 µM: read-out: % AChE inhibition mean ± SEM, 62.5 μM, n = 3; for inhibition at 125 µM: read-out: % AChE inhibition mean ± SEM, 125 μM, n = 3; for inhibition at 250 µM: read-out: % AChE inhibition mean ± SEM, 250 μM, n = 3; for inhibition at 500 µM: read-out: % AChE inhibition mean ± SEM, 500 μM, n = 3; for inhibition at 1000 µM: read-out: % AChE inhibition mean ± SEM, 1000 μM, n = 3
electric eel acetylcholinesterase (type-VI-S), sequence (O42275 24-633): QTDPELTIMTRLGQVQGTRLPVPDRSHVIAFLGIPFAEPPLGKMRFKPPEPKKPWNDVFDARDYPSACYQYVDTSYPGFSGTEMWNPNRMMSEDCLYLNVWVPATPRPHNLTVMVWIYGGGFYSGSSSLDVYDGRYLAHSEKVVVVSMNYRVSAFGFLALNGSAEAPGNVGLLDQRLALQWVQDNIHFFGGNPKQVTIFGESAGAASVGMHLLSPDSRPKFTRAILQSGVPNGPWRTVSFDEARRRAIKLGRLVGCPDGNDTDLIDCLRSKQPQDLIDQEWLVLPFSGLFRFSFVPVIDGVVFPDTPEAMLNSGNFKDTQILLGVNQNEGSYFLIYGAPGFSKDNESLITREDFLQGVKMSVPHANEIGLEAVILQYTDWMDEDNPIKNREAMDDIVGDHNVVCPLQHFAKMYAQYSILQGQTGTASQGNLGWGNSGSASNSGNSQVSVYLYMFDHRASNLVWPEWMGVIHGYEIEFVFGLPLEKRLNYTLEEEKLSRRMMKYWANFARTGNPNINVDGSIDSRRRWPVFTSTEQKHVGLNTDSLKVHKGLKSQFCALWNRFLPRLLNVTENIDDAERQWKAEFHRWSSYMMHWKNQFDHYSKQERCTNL

[6] = 30 mg/kg plus scopolamine 1 mg/kg
[7] = 1, 10 and 30 mg/kg plus scopolamine 1 mg/kg
[8] = 10 and 30 mg/kg plus scopolamine 1 mg/kg

SMILES | % DPPH scavenging mean ± SEM ([1]; 31.25 μM) [%] | % DPPH scavenging mean ± SEM ([1]; 125 μM) [%] | % DPPH scavenging mean ± SEM ([1]; 250 μM) [%] | % DPPH scavenging mean ± SEM ([1]; 500 μM) [%] | % DPPH scavenging mean ± SEM ([1]; 1000 μM) [%] | IC50 [1] [µM] | % ABTS scavenging mean ± SEM (ABTS scavenging assay; 31.25 μM) [%] | % ABTS scavenging mean ± SEM (ABTS scavenging assay; 62.5 μM) [%] | % ABTS scavenging mean ± SEM (ABTS scavenging assay; 125 μM) [%] | % ABTS scavenging mean ± SEM (ABTS scavenging assay; 250 μM) [%] | % ABTS scavenging mean ± SEM (ABTS scavenging assay; 500 μM) [%] | % ABTS scavenging mean ± SEM (ABTS scavenging assay; 1000 μM) [%] | IC50 (ABTS scavenging assay) [µM] | inhibition at 31.25 µM [3] [%] | inhibition at 62.5 µM [3] [%] | inhibition at 125 µM [3] [%] | inhibition at 250 µM [3] [%] | inhibition at 500 µM [3] [%] | inhibition at 1000 µM [3] [%] | IC50 [5] [µM] | also measured
O=C1O[C@H]([C@@H](O)CO)C(O)=C1O [ascorbic acid, reference compound] | 29.20 ± 1.03 | 52.56 ± 0.69 | 65.19 ± 0.29 | 74.44 ± 0.48 | 85.08 ± 0.32 | 61 | 35.27 ± 0.67 | 44.58 ± 1.11 | 51.89 ± 0.59 | 63.11 ± 1.22 | 73.22 ± 0.21 | 82.14 ± 0.19 | 125 |  |  |  |  |  |  |  | % DPPH scavenging mean ± SEM ([1]; 62.5 μM): 47.65 ± 0.2a %
COc1cc2c(cc1OC)C(=O)C(CC1CCN(Cc3ccccc3)CC1)C2 (stereo not shown) [donepezil, reference compound] |  |  |  |  |  |  |  |  |  |  |  |  |  | 69.31 ± 0.06 | 74.42 ± 0.06 | 78.39 ± 0.06 | 82.49 ± 0.08 | 86.42 ± 0.11 | 91.29 ± 0.06 |  | Y-maze spontaneous alteration (% alteration) ([2]; donepezil 2 mg/kg plus scopolamine, n = 8): 83.83 ± 2.64; NORT short-term memory: exploration of novel vs familiar object in test phase ([4]; donepezil 2 mg/kg plus scopolamine 1 mg/kg): statistically not significant
O=C1c2ccccc2C(=O)N1c1ccc(C(F)(F)F)cc1 [compound 1, 2-(4-(trifluoromethyl)phenyl)isoindoline-1,3-dione] | 30.21 ± 0.17 | 52.16 ± 0.15 | 67.85 ± 0.18 | 76.65 ± 0.30 | 85.87 ± 0.23 | 105 | 11.47 ± 0.54 | 28.21 ± 0.32 | 42.10 ± 1.11 | 49.72 ± 0.72 | 66.65 ± 0.61 | 70.55 ± 0.32 | 205 | 41.39 ± 0.07 | 47.29 ± 0.12 | 54.29 ± 0.19 | 61.76 ± 0.49 | 67.4 ± 0.89 | 75.4 ± 1.39 | 10 | inhibition at 31.25 µM [5]: 55.68 ± 0.52%; inhibition at 62.5 µM [5]: 61.77 ± 0.49%; inhibition at 125 µM [5]: 77.4 ± 0.9%; inhibition at 250 µM [5]: 84.4 ± 1.39%; inhibition at 500 µM [5]: 81.44 ± 0.29%; inhibition at 1000 µM [5]: 98.51 ± 0.65%; Y-maze spontaneous alternation vs scopolamine group ([2]; 10 and 30 mg/kg plus scopolamine): significant increase; IC50 [3]: 80 µM; NORT long-term memory: % discrimination index [4, 6]: significantly higher; NORT short-term memory: exploration of novel vs familiar object in test phase [4, 7]: statistically not significant; NORT long-term memory: % discrimination index [4, 8]: significantly higher; NORT short-term memory: % discrimination index vs scopolamine alone [4, 8]: significantly greater; also recorded: significantly higher
Cc1ccc(N2C(=O)c3ccccc3C2=O)c(C)c1 [compound 3, 2-(2,4-dimethylphenyl)isoindoline-1,3-dione] | 25.21 ± 0.15 | 40.16 ± 0.15 | 55.85 ± 0.18 | 77.65 ± 0.31 | 80.87 ± 0.25 | 150 | 18.47 ± 0.83 | 35.22 ± 0.50 | 46.11 ± 1.21 | 54.72 ± 0.80 | 68.76 ± 0.72 | 73.57 ± 0.41 | 220 | 59.49 ± 0.11 | 63.41 ± 0.14 | 69.37 ± 0.02 | 75.65 ± 0.03 | 82.4 ± 0.06 | 87.29 ± 0.03 | 18 | % AChE inhibition mean ± SEM ([5]; 1000 μM, n = 3): 95.24 ± 0.12%; inhibition at 31.25 µM [5]: 65.2 ± 0.75%; inhibition at 62.5 µM [5]: 52.5 ± 0.92%; inhibition at 125 µM [5]: 77.32 ± 0.21%; inhibition at 250 µM [5]: 84.18 ± 0.1%; inhibition at 500 µM [5]: 91.47 ± 0.26%; inhibition at 1000 µM [5]: 95.7 ± 0.12%; IC50 [3]: 11 µM; NORT short-term memory: % discrimination index vs scopolamine alone [4, 6]: significantly higher; NORT long-term memory: % discrimination index [4, 8]: significantly higher
O=C1c2ccccc2C(=O)N1c1ccc(Br)cc1 [compound 2, 2-(4-bromophenyl)isoindoline-1,3-dione] | 15.21 ± 0.19 | 40.16 ± 0.14 | 47.85 ± 0.17 | 56.65 ± 0.30 | 69.87 ± 0.23 | 340 | 10.47 ± 0.25 | 22.12 ± 0.32 | 34.11 ± 1.21 | 41.72 ± 0.81 | 57.76 ± 0.75 | 62.57 ± 0.50 | 350 | 45.45 ± 0.22 | 51.34 ± 0.03 | 56.28 ± 0.03 | 64.36 ± 0.03 | 71.25 ± 0.12 | 78.2 ± 0.07 | 140 | inhibition at 31.25 µM [5]: 38.36 ± 0.22%; inhibition at 62.5 µM [5]: 41.35 ± 0.13%; inhibition at 125 µM [5]: 47.14 ± 0.09%; inhibition at 250 µM [5]: 54.33 ± 0.22%; inhibition at 500 µM [5]: 61.1 ± 1.95%; inhibition at 1000 µM [5]: 66.7 ± 5.14%; IC50 [3]: 50 µM; NORT short-term memory: exploration of novel vs familiar object in test phase [4, 7]: did not exert a significant effect
